EP4467141A1, “PYRAZOLO-QUINOLINES AS SELECTIVE INHIBITORS OF GENOTOXIC STRESS-INDUCED IKK/NF- KB PATHWAYS FOR CANCER THERAPY” (Max-Delbrück-Centrum für Molekulare Medizin in der …, priority 2023, dated 2024)

Legend:
[1] = HPLC of media supernatant from U2-OS cell culture (degradation); type: physicochemical; details: 10µM
[2] = system: NF-κB subunit p65 phosphorylation (S536); experiment: Western blot of p65 phosphorylation (S536) after TNFα in U2-OS cells; type: cell-based; details: 1-hour pre-treatment, TNFα 10 ng/ml, 20 min
Experimental: Fig.1: Identification of inhibitors specific for DNA damage-induced NF-κB activity. (A) Flowchart representing the high-throughput chemical library screening. A screen/counter-screen strategy was used by stimulating NF-κB in U2-OS cells with etoposide (50 µM for 90 min) and hits were counter-screened with TNFα (10 ng/ml for 20 min). Cells were pre-treated with compounds (10 µM) for 1 hour before stimulation, fixed, and percent p65 nuclear translocation measured by fluorescence microscopy. IC50 values were used for final selection. (B) Comparison of mean p65 nuclear translocation following either etoposide or TNFa stimulation after treatment with each counter-screened hit compound. Values were normalized to etoposide or TNFα positive controls. Specific inhibitors (red) of DNA damage-induced NF-κB signaling were defined by setting cut-off criteria (black line). […] (C) IC50 determination for MW01 (left) and MW05 (right) of p65 nuclear translocation, following either etoposide or TNFα treatment. […] IC50 noted with a dotted line. […] (E) Western blot analysis (top) and quantification (bottom) of NF-κB subunit p65 phosphorylation (S536) following 1-hour pre-treatment with DMSO, MW01 (10 µM), or MW05 (10 µM), in unstimulated, after 90 min irradiation (IR, 20 Gy), or after 20 min TNFα (10 ng/mL) conditions in U2- OS cells. […]
NF-κB was stimulated by DNA damage through either 20 Gy irradiation (IR) and analyzed after 90 minutes or by 10 ng/ml TNFα and analyzed after 20 minutes unless otherwise noted. […]
Cells were collected by scraping and lysed in Baeuerle lysis buffer supplemented with Protease (Thermo Fisher Scientific, 78429) and Phosphatase (Thermo Fisher Scientific, 78420) inhibitors after the appropriate treatment and time point. Proteins were quantified by Bradford assay (Bio-Rad, 5000006) and 20-50 µg of extracted proteins were loaded on 4-20% Protein Gel (Bio-Rad, 4568096) and then transferred onto a PVDF membrane (Bio-Rad, 1620177) using Tris-Glycine buffer with 20% of methanol. […]

[3] = system: IKKγ; experiment: IKKγ phosphorylation (S85) and mono-ubiquitination after irradiation (immunoprecipitation / Western blot); type: cell-based; details: irradiation (IR, 20 Gy); 1 hour pre-treatment
Experimental: Fig.7: (A) Immunoprecipitation of IKKγ from HEK293 lysates pre-treated for 1 hour with DMSO, MW01 or MW05, then irradiated (IR, 20 Gy) and lysed. (B) Western blot analysis of MEF cells pre-treated with DMSO, MW01, MW05 or ATM inhibitor KU55933 and irradiated (IR, 20 Gy). Lysates were subjected to SDS-PAGE/WB. The specific IKKγ S85 band (lower band) was identified by induction following irradiation and by sensitivity to ATMi and λ- phosphatase (λ-PP) treatment. (C) Western blot analysis of U2os cells pre-treated for 1 hour with the indicated substances, irradiated (IR, 20 Gy) and whole cell lysates probed for poly(ADP)-ribose. (D) Western blot analysis of cytoplasmic and nuclear fractions from U2-OS cells for p-ATM (S 1981), after 1 hour pre-treatment with DMSO, MW01 (10 µM), or MW05 (10 µM) and 45 min following irradiation (IR, 20 Gy). PARP1 and LDHA are used as loading controls for nuclear and cytoplasmic fractions respectively. […]
To identify inhibitors that selectively prevent DNA damage-induced NF-κB activation, we established a high-throughput screening platform quantifying p65 nuclear translocation, an essential step in NF-κB activation (Hayden and Ghosh, 2008). […] The IC50s of p65 nuclear translocation following both stimuli were determined for 21 compounds. […]

Row | SMILES | degradation in cell culture conditions [1] | phosphorylation of p65 at serine 536, TNFα-stimulated [2] | IR-induced IKKy phosphorylation and mono-ubiquitination [3]
1 | COc1ccc2cc3c(N)nn(C(=O)c4cccc(N(C)C)c4)c3nc2c1 [MW05, (3-Amino-7-methoxypyrazolo[3,4-b]quinolin-1-yl)-[3-(dimethylamino)phenyl]methanone] | minimal degradation | untouched | inhibited
2 | COc1ccc2c(c1OC)c(=O)n1c3ccc(O)cc3c3ccnc2c31 [MW01, 5-Hydroxy-10,11-dimethoxy-9H-benzo[c]indolo[3,2,1-ij][1,5]naphthyridin-9-one] | minimal degradation | untouched | inhibited
